Experimental data reported in US6362134B1, “Herbicidal 1,2,4,6-thiatriazines” (Syngenta Investment Corporation, priority 1996, dated 2002).

How the values were obtained:
Assay type in all cases: in vivo
Sinapis [1] = assay: Post-emergent herbicidal action (contact herbicide); set-up: key: 1=complete damage; 9=no action; Ratings of 1 to 4 (in particular 1 to 3) mean a good to very good herbicidal action; details: 2000 g of active substance/ha, sprayed in the 4- to 6-leaf stage, evaluated after about 18 days, ratings scale 1-9
Experimental: (§1) Monocotyledon and dicotyledon test plants are grown in plastic pots with standard soil in a greenhouse and, in the 4- to 6-leaf stage, are sprayed with an aqueous suspension of the test substances of the formula 1, prepared from a 25% wettable power (Example F3, b)), corresponding to a dosage of 2000 g of active substance/ha (500 l of water/ha). The test plants are then grown further in the greenhouse under optimum conditions. After a test period of about 18 days, the test is evaluated with a ratings scale of 9 levels (1=complete damage, 9=no action). Ratings of 1 to 4 (in particular 1 to 3) mean a good to very good herbicidal action.
(§2) Test plants: Sinapis, Stellaria

Stellaria [2] = assay: as above; set-up: key: 1=complete damage; 9=no action; Ratings of 1 to 4 (in particular 1 to 3) mean a good to very good herbicidal action; details: 2000 g of active substance/ha, sprayed in the 4- to 6-leaf stage, evaluated after about 18 days, ratings scale 1-9
Experimental: as §1, §2

Setaria = assay: Herbicidal action before emergence of the plants (pre-emergent action); set-up: key: 1=complete damage; 9=no action; Ratings of 1 to 4 (in particular 1 to 3) mean a good to very good herbicidal action; details: 2000 g of active substance/ha, sprayed immediately after sowing, evaluated after 3 weeks, ratings scale of nine levels
Experimental: (§3) Monocotyledon and dicotyledon test plants are sown in standard soil in plastic pots. Immediately after sowing, the test substances are sprayed on (500 l of water/ha) in an aqueous suspension prepared from a 25% wettable powder (Example F3, b)), corresponding to a dosage of 2000 g of active substance/ha. The test plants are then grown under optimum conditions in a greenhouse. After a test period of 3 weeks, the test is evaluated with a ratings scale of nine levels (1=complete damage, 9=no action). Ratings of 1 to 4 (in particular 1 to 3) mean a good to very good herbicidal action.
(§4) Test plants: Avena, Setaria, Sinapis, Stellaria

Sinapis [3] = assay: as above; set-up: key: 1=complete damage; 9=no action; Ratings of 1 to 4 (in particular 1 to 3) mean a good to very good herbicidal action; details: 2000 g of active substance/ha, sprayed immediately after sowing, evaluated after 3 weeks, ratings scale of nine levels
Experimental: as §3, §4

Stellaria [4] = assay: as above; set-up: key: 1=complete damage; 9=no action; Ratings of 1 to 4 (in particular 1 to 3) mean a good to very good herbicidal action; details: 2000 g of active substance/ha, sprayed immediately after sowing, evaluated after 3 weeks, ratings scale of nine levels
Experimental: as §3, §4

Avena = assay: as above; details: 2000 g of active substance/ha, sprayed immediately after sowing, evaluated after 3 weeks, ratings scale of nine levels (1=complete damage, 9=no action)
Experimental: as §3, §4

| SMILES | Post-emergent action, rating, Sinapis (Sinapis [1]) | Post-emergent action, rating, Stellaria (Stellaria [2]) | Pre-emergent action, rating, Setaria (Setaria) | Pre-emergent action, rating, Sinapis (Sinapis [3]) | Pre-emergent action, rating, Stellaria (Stellaria [4]) | Pre-emergent action, rating, Avena (Avena) |
| --- | --- | --- | --- | --- | --- | --- |
| NC1=NC(Oc2c(F)c(F)c(F)c(F)c2F)=NS(N2CC[C@H]3CCC[C@H]32)=N1 (relative stereo) [6.6] | 2 | 4 |  |  |  |  |
| NC1=NC(Oc2c(F)c(F)c(F)c(F)c2F)=NS(N2CC[C@H]3CCC[C@H]32)=N1 (relative stereo) [6.10] |  |  | 4 | 1 | 1 | 4 |
| NC1=NC(Oc2c(F)c(F)c(F)c(F)c2F)=NS(N2CCC[C@H]3CCC[C@H]32)=N1 (relative stereo) [6.27] | 2 | 3 | 3 | 2 | 1 | 4 |
| NC1=NC(Oc2cc(F)ccc2F)=NS(N2CC[C@H]3CCCC[C@H]32)=N1 (relative stereo) [6.120] | 2 | 4 |  |  |  |  |
| NC1=NS(N2CCC[C@H]3CCCC[C@H]32)=NC(Oc2c(F)c(F)cc(F)c2F)=N1 (relative stereo) [6.331] | 1 | 2 | 2 | 1 | 1 | 4 |
| CC1CN(S2=NC(N)=NC(Oc3c(F)c(F)c(F)c(F)c3F)=N2)CCC(C)(C)C1 (single isomer, unassigned) [6.92] | 1 | 1 | 1 | 1 | 1 | 4 |
| CC1CN(S2=NC(N)=NC(Oc3c(F)c(F)c(F)c(F)c3F)=N2)CCC(C)(C)C1 (single isomer, unassigned) [6.93] | 1 | 1 | 1 | 1 | 1 | 2 |
| CC1(C)CC2CC(C)(CN2S2=NC(N)=NC(Oc3c(F)c(F)c(F)c(F)c3F)=N2)C1 (single isomer, unassigned) [6.153] | 1 | 2 | 3 | 1 | 1 | 4 |
| CC1(C)CC2CC(C)(CN2S2=NC(N)=NC(Oc3c(F)c(F)c(F)c(F)c3F)=N2)C1 (single isomer, unassigned) [6.154] | 1 | 1 | 1 | 1 | 1 | 4 |
| CCC(C)(C)C1CCC(OS2=NC(N)=NC(Oc3c(F)c(F)c(F)c(F)c3F)=N2)CC1 (stereo not drawn) [5.59] | 1 | 3 |  |  |  |  |
| NC1=NC(Oc2c(F)c(F)c(F)c(F)c2F)=NS(OCC23CC4CC(CC(C4)C2)C3)=N1 (stereo not drawn) [5.85] | 3 | 3 |  |  |  |  |
| CC1CC(OS2=NC(N)=NC(Oc3c(F)c(F)c(F)c(F)c3F)=N2)CC(C)(C)C1 (stereo not drawn) [5.86] |  |  | 3 | 1 | 1 | 5 |
| CC1CCCC(OS2=NC(N)=NC(Oc3c(F)c(F)c(F)c(F)c3F)=N2)C1 (stereo not drawn) [5.141] | 2 | 4 |  |  |  |  |
| CC1(C)CC(OS2=NC(N)=NC(Oc3c(F)c(F)c(F)c(F)c3F)=N2)CC(C)(C)C1 (stereo not drawn) [5.146] |  |  | 1 | 1 | 1 | 4 |
| CC1(C)C2CCC1(C)C(OS1=NC(N)=NC(Oc3c(F)c(F)c(F)c(F)c3F)=N1)C2 (stereo not drawn) [5.154] | 2 | 4 |  |  |  |  |
| CC(C)(C)C1CCC(OS2=NC(N)=NC(Oc3c(F)c(F)c(F)c(F)c3F)=N2)CC1 (stereo not drawn) [5.316] | 2 | 4 |  |  |  |  |
| CC1CCCC(OS2=NC(N)=NC(Oc3c(F)c(F)c(F)c(F)c3F)=N2)C1 (stereo not drawn) [5.317] |  |  | 2 | 2 | 1 | 4 |
| CC1CCCC(OS2=NC(N)=NC(Oc3cc(F)ccc3F)=N2)C1 (stereo not drawn) [5.318] | 2 | 4 |  |  |  |  |
| CC1CCC(OS2=NC(N)=NC(Oc3c(F)c(F)c(F)c(F)c3F)=N2)CC1 (stereo not drawn) [5.327] |  |  | 3 | 2 | 1 | 4 |
